The test system of test [1] is hippocampal pyramidal neurons. Put plainly: Spontaneous EPSCs of hippocampal pyramidal neuron cultures, voltage-clamp. In kind it is cell-based. The note with it: 10 μM. As to the method:
To further determine the synaptic site of M-channel activation by Compound 6, its effects on spontaneous excitatory postsynaptic currents (EPSCs) that could be recorded from dense networks of hippocampal pyramidal neuron cultures was tested.
In FIGS. 30B and 30C, burst activity before (control), in the presence (Compound 6) and after (Wash) application of 5 μM (FIG. 30B) and 10 μM (FIG. 30C) Compound 6, as recorded at the voltage clamp mode is shown. In FIG. 30D, burst activity before (control) and in the presence of 25 μM Linopirdine is shown. In FIG. 30E, the normalized number of bursts appeared in 180 seconds time period for 5 μM (left panel), 10 μM (mid panel) of Compound 6 and 25 μM linopirdine (right panel) are shown. The holding potential was −70 mV. n=5-6.
Thus, using the voltage-clamp configuration of the patch-clamp technique, spontaneous EPSCs were isolated at −70 mV (holding potential) in the presence of 10 μM bicuculline and 10 μM picrotoxin to block GABAA receptor-mediated inhibitory postsynaptic currents. As is shown in FIG. 30A, under control conditions, the frequency of EPSCs is variable depending of the density of the hippocampal culture, ranging from 0.4 Hz to 2 Hz. […] However, the majority of the EPSCs measured at −70 mV under the experimental recording conditions are mediated by AMPA receptors as most of the currents are blocked by 10 μM NBQX, leaving only a small fraction EPSC sensitive to the NMDA receptor blocker DL-AP5 (FIG. 30A).

In another test the test system is rat cortical neurons. Put plainly: Evoked and spontaneous action potential activity of cultured rat cortical neurons, current-clamp. The note with it: 10 μM. In kind it is cell-based.

Regarding `O=C1N(c2ccccc2)c2ccccc2C1(Cc1ccncc1)Cc1ccncc1` [linopirdine], the “frequency of EPSCs” value in test [1] is given as “up to 278±41 % of control”. Also, the “effect on spontaneous spiking activity” value in the test on rat cortical neurons was “significantly enhanced the frequency of spontaneous spiking”.

Values taken from US8618169B2, “Derivatives of N-phenylanthranilic acid and 2-benzimidazolone as potassium channel and/or neuron activity modulators” (Ramot at Tel-Aviv University Ltd., priority 2002, dated 2013).
